{"source": "patent US20110264026A1", "about": "“Azo Derivatives and Uses Thereof in Phototherapy” (priority 2008, published 2011)", "key": {"[1]": {"system": "human myeloid leukemia U937 cell line", "test": "Cell viability of tumor cells exposed to photosensitizer and electromagnetic radiation", "assay_type": "cell-based", "settings": "for viability at 13 µM: 13 μM compound; for viability at 25 µM: 25 μM compound; for viability at 6 µM: 6 μM compound", "description": "A general procedure is carried out for measuring cell viability upon exposure of tumor cells to the fused ring diaza compound of Formula (FX33) and electromagnetic radiation. The compound of Formula (FX33) has an absorption maxima (λmax) of 334 nm. The cell viability measurements are carried out using human myeloid leukemia U937 cell line by the standard WST-1 assay. In this procedure, U397 Leukemia cells (0.5×10^6) are plated in standard T-25 cell culture flasks, and are exposed to four controls and a series of test conditions corresponding to a range of fused ring diaza compound concentrations, summarized in Table 1.\nThe compound of formula (FX33) is dissolved in 20 to 30% DMSO at an initial concentration of 2-4 mM and serially diluted to the final desired value such that the amount of DMSO exposed to the cells is below 0.5%. The cells are incubated at 37° C. with various concentrations of the fused ring diaza compound photosensitizer for about 30 minutes prior to exposure to electromagnetic radiation. […] It should be noted that in the present study, the electromagnetic radiation source is not optimized with respect to power and wavelength. The viability of cells is assessed after 24 hours following exposure to electromagnetic radiation. The electromagnetic radiation source is a B-100SP High Intensity Lamp from UVP. Once exposure is complete, cells are processed to determine percent viability using Hank's Balanced Salt Solution (HBSS), Trypan blue stain, and a hemacytometer to count live and dead cells. The number of viable cells is determined and percent viability is determined using:\nFIG. 4 provides cell viability results for test conditions wherein cells are exposed to electromagnetic radiation and the compound of formula (FX33) for concentrations of 6 μM, 13 μM and 25 μM. […] Cells are incubated in the absence of the compound of formula (FX33) (0 μM) and with the compound of formula (FX33) at concentrations of 6 μM, 13 μM and 25 μM. The cells are exposed to electromagnetic radiation from a B-100SP High Intensity Lamp for 0, 5, 10, and 20 minutes. […] In the presence of 13 μM of the diaza compound of formula (FX33), cells have about 94% viability with electromagnetic radiation exposure for 5 minutes, about 95% viability with electromagnetic radiation exposure for 10 minutes, and about 58% viability with electromagnetic radiation exposure for 20 minutes. In the presence of 25 μM of the compound of formula (FX33), cells have about 86% viability with electromagnetic radiation exposure for 5 minutes, about 30% viability with electromagnetic radiation exposure for 10 minutes, and about 8% viability with electromagnetic radiation exposure for 20 minutes."}, "Absorption maximum": {"test": "Absorption maximum", "assay_type": "physicochemical"}, "[2]": {"settings": "Homo sapiens, U-937, 5 min, electromagnetic radiation exposure 5 minutes"}, "[3]": {"settings": "Homo sapiens, U-937, 10 min, electromagnetic radiation exposure 10 minutes"}, "[4]": {"settings": "Homo sapiens, U-937, 20 min, electromagnetic radiation exposure 20 minutes"}}}
{"smiles": "COc1cc2c3c(cc(=O)oc3c1OC)NN=C2", "note": "[formula (FX33)]", "values": [{"measurement": "effect on cell viability (in words)", "setting": "[1]; 6, 13 and 25 μM, exposure 0, 5, 10 and 20 minutes", "result": "concentration-dependent and electromagnetic radiation exposure time-dependent decreases in cell viability"}, {"measurement": "viability at 13 µM", "setting": "[1]; [2]", "result": "~94", "unit": "%"}, {"measurement": "viability at 25 µM", "setting": "[1]; [2]", "result": "~86", "unit": "%"}, {"measurement": "viability at 6 µM", "setting": "[1]; [3]", "result": 100, "unit": "%"}, {"measurement": "viability at 13 µM", "setting": "[1]; [3]", "result": "~95", "unit": "%"}, {"measurement": "viability at 25 µM", "setting": "[1]; [3]", "result": "~30", "unit": "%"}, {"measurement": "viability at 6 µM", "setting": "[1]; [4]", "result": "~92", "unit": "%"}, {"measurement": "viability at 13 µM", "setting": "[1]; [4]", "result": "~58", "unit": "%"}, {"measurement": "viability at 25 µM", "setting": "[1]; [4]", "result": "~8", "unit": "%"}, {"measurement": "IC50", "setting": "[1]; Homo sapiens, U-937, 20 min, cells exposed to electromagnetic radiation and photosensitizer for 20 minutes, read-out: VC50/20 (concentration at which 50% decrease in cell viability is observed)", "result": 5.25, "unit": "µM"}, {"measurement": "viability at 6 µM", "setting": "[1]; Homo sapiens, U-937, electromagnetic radiation exposure 5 minutes (B-100SP lamp, 325-425 nm), viability assessed after 24 hours", "result": 100, "unit": "%"}, {"measurement": "absorption maxima (λmax)", "setting": "Absorption maximum", "result": 334, "unit": "nm"}]}
